Test results: patent US7524495B2, “Inhibition of TACE or amphiregulin for the modulation of EGF receptor signal transactivation” (Max-Planck-Gesellschaft zur Foerderung der Wissenschaften …, priority 2003, dated 2009)

Legend:
proHB-EGF = assay: Flow cytometric analysis of proHB-EGF ectodomain cleavage; type: cell-based, human; settings: HNSCC cells; data not shown
Method: (§1) ACS analysis was performed as described before (1). Cells were stained with ectodomain-specific antibodies against HB-EGF, AR (R&D Systems) or TGFa (Oncogene, Boston; Mass.). After washing with PBS, cells were incubated with FITC-conjugated secondary antibody and analyzed on a Becton Dickinson FACScalibur flow cytometer.

proAR = assay: Flow cytometric analysis of cell surface proAR (proAR shedding); type: cell-based, human; settings: for cell surface content of endogenous proAR after agonist treatment: head and neck cancer cells, LPA 10 μM
Method: (§2) FIG. 1 GPCR stimulation of the EGFR Involves a ligand-dependent mechanism and is accompanied by AR release from the cell surface. a, EGFR signal transactivation requires metalloprotease activity and the EGFR extracellular domain. SCC-9 cells were pre-incubated with marimastat (BB2516, 10 μM; 20 min), anti-EGFR antibody ICR-3R (20 μg/mL; 60 min) or PTX (100 ng/mL; 18 h) and treated with LPA (10 μM), carbachol (Car, 1 mM), EGF (7.5 ng/mL) or pervanadate (PV, 1 mM) for 3 min. Following immunoprecipitation (IP) of cell extracts with anti-EGFR antibody proteins were immunoblotted (IB) with anti-phosphotyrosine antibody and re-probed with anti-EGFR antibody. b, Flow cytometric analysis of EGF-like precursor expression. SCC-9 cells were collected and stained for surface HB-EGF, TGFa or AR and analyzed by flow cytometry. Control cells were labelled with FITC-conjugated secondary antibody alone. c, LPA-induced proteolytic processing of proAR. SCC-9 cells were pre-incubated with batimastat (BB94, 10 μM) or PTX and stimulated with LPA or TPA (1 μM) for 5 min. Cells were collected and analyzed for cell surface AR density by flow cytometry. d, GPCR-induced proteolytic release of AR. SCC-9 cells were pre-incubated with batimastat or vehicle followed by stimulation with agonists as indicated for 120 min. Conditioned medium was collected and analyzed for total AR amount by ELISA. Each bar is the average of triplicate values (mean±s.d.). *, P<0.03 for the difference between agonists vs. BB94+agonists.
as §1

proTGFα = assay: Flow cytometric analysis of proTGFα ectodomain cleavage; type: cell-based, human; settings: HNSCC cells; data not shown
Method: as §1

amphiregulin (AR) = assay: AR release into cell culture medium (sandwich ELISA); type: cell-based, human; settings: SCC-9 cells; compared to LPA stimulation
Method: as §2, with “SCC-9 cells were pre-incubated with batimastat (BB94, 10 μM) or PTX and stimulated with LPA or TPA (1 μM) for 5 min.” left out, “SCC-9 cells were pre-incubated with batimastat or vehicle followed by stimulation with agonists as indicated for 120 min.” left out, “Each bar is the average of triplicate values (mean±s.d.). *, P<0.03 for the difference between agonists vs. BB94+agonists.” left out
Concentrations of free AR were determined by sandwich ELISA (R&D Systems) using monoclonal anti-AR capture antibody and biotinylated polyclonal detection antibody. […] Values are expressed as mean±s.d. of at least triplicate samples. […]

EGFR = EGFR tyrosine phosphorylation / EGFR signal transactivation (IP with anti-EGFR, anti-phosphotyrosine immunoblot); type: cell-based, human; settings: for GPCR-induced EGFR tyrosine phosphorylation (EGFR transactivation signal): SCC-9 cells, stimulation with LPA or carbachol
Method: as §2
FIG. 2 GPCR stimulation requires AR to trigger EGFR-dependent signals and biological responses. a, Blockade of EGF-like growth factor precursor expression by RNA interference (RNAi). SCC-9 cells were transfected with siRNA for proAR, proHB-EGF or proTGFα cultured for 2 days and analyzed for gene expression by RT-PCR as indicated or b, stimulated with LPA or carbachol and assayed for EGFR tyrosine phosphorylation content. c, Requirement of AR for LPA-induced cell migration. SIRNA-transfected SCC-9 cells were analyzed for transwell migration toward fibronectin as chemoattractant. Each bar is the average of quadruplicate values (mean±s.d.). *, P<0.001 for control siRNA+LPA vs. proAR siRNA+LPA. d, Effect of anti-AR neutralizing antibody and heparin on GPCR-induced EGFR and SHC tyrosine phosphorylation. […] Phosphorylated ERK1/2 was detected by immunoblotting total lysates with anti-phospho-ERK antibody. […] Quantitative analysis of ERK phosphorylation from three independent experiments (mean±s.d.). *, P<0.05 for the difference between LPA vs. inhibitors+LPA. […] Cells were then pulse-labelled with ^3H-thymidine and thymidine incorporation was measured by liquid-scintillation counting. Quantitative analysis from three independent experiments (mean±s.d.). *, P<0.001 for LPA vs. inhibitors+LPA. […]

SCC-15 cells = assay: 3H-thymidine incorporation assay (DNA synthesis); type: cell-based, human; settings: 18 h
Description: (§3) FIG. 2 GPCR stimulation requires AR to trigger EGFR-dependent signals and biological responses. a, Blockade of EGF-like growth factor precursor expression by RNA interference (RNAi). SCC-9 cells were transfected with siRNA for proAR, proHB-EGF or proTGFα cultured for 2 days and analyzed for gene expression by RT-PCR as indicated or b, stimulated with LPA or carbachol and assayed for EGFR tyrosine phosphorylation content. c, Requirement of AR for LPA-induced cell migration. SIRNA-transfected SCC-9 cells were analyzed for transwell migration toward fibronectin as chemoattractant. […] Phosphorylated ERK1/2 was detected by immunoblotting total lysates with anti-phospho-ERK antibody. […] Quantitative analysis of ERK phosphorylation from three independent experiments (mean±s.d.). *, P<0.05 for the difference between LPA vs. inhibitors+LPA. […] Cells were then pulse-labelled with ^3H-thymidine and thymidine incorporation was measured by liquid-scintillation counting. Quantitative analysis from three independent experiments (mean±s.d.). *, P<0.001 for LPA vs. inhibitors+LPA.
For the ^3H-thymidine incorporation assay (5), SCC-15 cells were seeded into 12-well plates at 3×10^4 cells/well. […] After 18 h cells were pulse-labelled with ^3H-thymidine (1 μCi/ml) for 4 h, and thymidine incorporation was measured by trichloroacetic acid precipitation and subsequent liquid-scintillation counting.

TACE = TACE (Homo sapiens, UniProt P78536); settings: reference (25); cited from earlier work
ERK1/2 = assay: ERK/MAPK activation (anti-phospho-ERK immunoblot); type: cell-based, human; settings: SCC-9 and SCC-15 cells
Description: as §3
Cells were lysed and proteins immunoprecipitated as described (13). […] Phosphotyrosine was detected with the 4G10 monoclonal antibody (UBI, Lake Placid, N.Y.). […]

Akt/PKB = Akt/PKB phosphorylation (anti-phospho-Akt immunoblot); type: cell-based, human; settings: head and neck cancer cells

Sequence of TACE (P78536 215-824): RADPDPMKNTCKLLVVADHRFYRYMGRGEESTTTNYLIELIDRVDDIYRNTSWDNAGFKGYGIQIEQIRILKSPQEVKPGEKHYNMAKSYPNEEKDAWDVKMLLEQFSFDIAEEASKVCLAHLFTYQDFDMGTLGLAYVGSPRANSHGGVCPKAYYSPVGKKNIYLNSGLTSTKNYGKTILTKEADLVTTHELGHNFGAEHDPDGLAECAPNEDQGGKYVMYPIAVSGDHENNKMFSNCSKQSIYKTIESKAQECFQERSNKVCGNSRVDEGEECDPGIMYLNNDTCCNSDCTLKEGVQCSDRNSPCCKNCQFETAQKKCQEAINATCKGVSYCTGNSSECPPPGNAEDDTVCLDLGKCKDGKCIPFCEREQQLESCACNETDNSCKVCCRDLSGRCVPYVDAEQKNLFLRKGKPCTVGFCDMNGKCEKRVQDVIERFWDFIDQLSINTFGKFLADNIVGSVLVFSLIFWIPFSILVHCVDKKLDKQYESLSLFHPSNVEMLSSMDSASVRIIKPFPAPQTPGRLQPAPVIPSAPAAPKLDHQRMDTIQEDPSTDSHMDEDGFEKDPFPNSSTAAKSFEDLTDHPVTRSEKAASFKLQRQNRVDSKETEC

CCCCCCCCCCCCCC(=O)O[C@@H]1[C@@H](C)[C@@]2(O)[C@@H](C=C(CO)C[C@]3(O)C(=O)C(C)=C[C@@H]23)[C@@H]2C(C)(C)[C@]12OC(C)=O [TPA]
proteolytic (ectodomain) cleavage of proHB-EGF by agonist (proHB-EGF): resulted in ectodomain cleavage | cell surface content of endogenous proAR after agonist treatment (proAR; TPA 1 µM as printed): reduced | proteolytic (ectodomain) cleavage of proTGFα by agonist (proTGFα): resulted in ectodomain cleavage

C[N+](C)(C)CCOC(N)=O [carbachol]
AR release in response to agonist (amphiregulin (AR)): substantially lower compared to LPA stimulation

CNC(=O)[C@@H](NC(=O)[C@H](CC(C)C)[C@H](O)C(=O)NO)C(C)(C)C [marimastat]
GPCR-induced EGFR tyrosine phosphorylation (EGFR transactivation signal) (EGFR): sensitive

COc1cc2ncnc(Nc3cccc(Cl)c3)c2cc1OC [tyrphostin AG1478]
DNA synthesis triggered by LPA (SCC-15 cells): decreased DNA synthesis by LPA to below basal level

Timp-1: human Timp-1; ectopic expression by retroviral transduction
proteolytic activity of TACE in vitro (TACE): not | GPCR-induced EGFR tyrosine phosphorylation (EGFR transactivation signal) (EGFR): not

heparin
LPA-induced EGFR tyrosine phosphorylation (EGFR signal transactivation) (EGFR; LPA 10 μM, 3 min, SCC-9 (anti-AR also SCC-4, SCC-15, SCC-25)): completely blocked | LPA-induced ERK activation (ERK1/2): prevented

lysophosphatidic acid [LPA]
proteolytic (ectodomain) cleavage of proHB-EGF by agonist (proHB-EGF): not able to induce | cell surface content of endogenous proAR after agonist treatment (proAR; TPA 1 µM): reduced | proteolytic (ectodomain) cleavage of proTGFα by agonist (proTGFα): not able to induce | phosphorylation of Akt/PKB at Ser-473 by agonist (Akt/PKB): markedly increased

pertussis toxin [PTX]
LPA-induced ectodomain cleavage (shedding) of proAR (proAR; SCC-9 cells, batimastat 10 μM, PTX 100 ng/mL): partially inhibited

B1: Timp-3: tissue inhibitor of metalloprotease-3; ectopic expression by retroviral transduction (protein)
chain: CTCSPSHPQDAFCNSDIVIRAKVVGKKLVKEGPFGTLVYTIKQMKMYRGFTKMPHVQYIHTEASESLCGLKLEVNKYQYLLTGRVYDGKMYTGLCNFVERWDQLTLSQRKGLNYRYHLGCNCKIKSCYYLPCFVTSKNECLWTDMLSNFGYPGYQSKHYACIRQKGGYCSWYRGWAPPDKSIINATDP
modifications: left off: small tags and cut ends
notes: ectopic expression by retroviral transduction
proteolytic activity of TACE in vitro (TACE): inhibited | GPCR-induced EGFR tyrosine phosphorylation (EGFR transactivation signal) (EGFR): inhibited
